According to article PMC10776900, “Identification of structural motifs critical for human G6PC2 function informed by sequence analysis and an AlphaFold2-predicted model” (Bioscience Reports, 2024):

Legend:
human G6PC2 V219 variant [1] = molecular target: T1, human G6PC2 V219 variant (Homo sapiens, UniProt Q9NQR9); test: G6Pase activity of enzyme purified with versus without CHS; format: biochemical; details: CHS 0.05% in solubilisation, 0.02% in later buffers, LMNG micelles; putative CRAC motif
T1 construct: purified from HEK293S (BacMam) in LMNG micelles

human G6PC2 V219 variant [2] = molecular target: T1, human G6PC2 V219 variant; test: G6Pase activity with acute addition of cholesterol to purified enzyme; format: biochemical; details: purified without CHS, LMNG micelles; putative CRAC motif

Row | SMILES | % reduction of Vmax (human G6PC2 V219 variant [1]) | G6Pase activity with acute addition of cholesterol to purified enzyme (human G6PC2 V219 variant [2])
1 | CC(C)CCC[C@@H](C)[C@H]1CC[C@H]2[C@@H]3CC=C4C[C@@H](OC(=O)CCC(=O)O)CC[C@]4(C)[C@H]3CC[C@]12C [cholesterol hemi-succinate] | ~ 90% | 
2 | CC(C)CCC[C@@H](C)[C@H]1CC[C@H]2[C@@H]3CC=C4C[C@@H](O)CC[C@]4(C)[C@H]3CC[C@]12C [cholesterol] |  | addition of cholesterol decreased the activity of the V219 but not the L219 variant
